Patent US8741836B2, “Polypeptides” (Novo Nordisk A/S, priority 2011, dated 2014)
Starred links: 1 amine or outer side, 2 acyl side, 3 side chain; linkers in the order of their positions; H or OH if unused. Positions of bridges follow the written chain, without caps; N, C: chain ends. Residues, ends and D or L forms follow the SMILES beside them. *: point of attachment. C20 diacid = O=C(O)CCCCCCCCCCCCCCCCCCC(=O)*; γGlu = O=C(O)[C@H](CCC(=O)[*:2])N[*:1]

Assay: Assay (III) ThT fibrillation assay for physical stability
Format: physicochemical
Conditions: for ThT pH 4.0 lag time: pH 4.0, ThT fibrillation assay
Text: Assay (III)—ThT Fibrillation Assays for the Assessment of Physical Stability of Protein formulations Low physical stability of a polypeptide may lead to amyloid fibril formation, which is observed as well-ordered, thread-like macromolecular structures in the sample eventually resulting in gel formation. This has traditionally been measured by visual inspection of the sample. However, that kind of measurement is very subjective and depending on the observer. Therefore, the application of a small molecule indicator probe is much more advantageous. Thioflavin T (ThT) is such a probe and has a distinct fluorescence signature when binding to fibrils [Naiki et al. (1989) Anal. Biochem. 177, 244-249; LeVine (1999) Methods. Enzymol. […], 274-284]. The time course for fibril formation can be described by a sigmoidal curve with the following expression [Nielsen et al. (2001) Biochemistry 40, 6036-6046]: [formula] Here, F is the ThT fluorescence at the time t. The constant t0 is the time needed to reach 50% of maximum fluorescence. […] Few of those intermediates nucleate to form a template onto which further intermediates may assembly and the fibrillation proceeds. The lag-time corresponds to the interval in which the critical mass of nucleus is built up and the apparent rate constant is the rate with which the fibril itself is formed. Sample Preparation Samples were prepared freshly before each assay. Each sample composition is described in each example. The pH of the sample was adjusted to the desired value using appropriate amounts of concentrated NaOH and HClO4 or HCl. Thioflavin T was added to the samples from a stock solution in H2O to a final concentration of 1 μM. Sample aliquots of 200 μl were placed in a 96 well microtiter plate (Packard OptiPlate™-96, white polystyrene). Usually, four or eight replica of each sample (corresponding to one test condition) were placed in one column of wells. The plate was sealed with Scotch Pad (Qiagen). Incubation and Fluorescence Measurement Incubation at given temperature, shaking and measurement of the ThT fluorescence emission were done in a Fluoroskan Ascent FL fluorescence platereader or Varioskan platereader (Thermo Labsystems). The temperature was adjusted to 37° C. The orbital shaking was adjusted to 960 rpm with an amplitude of 1 mm in all the presented data. Fluorescence measurement was done using excitation through a 444 nm filter and measurement of emission through a 485 nm filter. Each run was initiated by incubating the plate at the assay temperature for 10 min. The plate was measured every 20 minutes for a desired period of time. Between each measurement, the plate was shaken and heated as described. Data Handling The measurement points were saved in Microsoft Excel format for further processing and curve drawing and fitting was performed using GraphPad Prism. The background emission from ThT in the absence of fibrils was negligible. The data points are typically a mean of four or eight samples and shown with standard deviation error bars. Only data obtained in the same experiment (i.e. samples on the same plate) are presented in the same graph ensuring a relative measure of fibrillation between experiments. The data set may be fitted to Eq. (1). However, since full sigmodial curves in this case are not always achieved during the measurement time, the degree of fibrillation is expressed as ThT fluorescence tabulated as the mean of the samples and shown with the standard deviation at various time points. Measurement of Initial and Final Concentrations The polypeptide concentration in each of the tested formulations were measured both before application in the ThT fibrillation assay (“Initial”) and after completion of the ThT fibrillation (“After ThT assay”). Concentrations were determined by reverse HPLC methods using a pramlintide standard as a reference. Before measurement after completion 150 μl was collected from each of the replica and transferred to an Eppendorf tube. […]

Structure (SMILES)	ThT pH 4.0 lag time [h]	ThT pH 4.0 lag time (physical stability in fibrillogenesis assay) [h]
CC[C@H](C)[C@H](NC(=O)[C@@H]1CCCN1C(=O)CNC(=O)[C@H](Cc1ccccc1)NC(=O)[C@H](CC(N)=O)NC(=O)[C@H](CC(N)=O)NC(=O)[C@H](CO)NC(=O)[C@H](CO)NC(=O)[C@H](Cc1c[nH]cn1)NC(=O)[C@H](Cc1c[nH]cn1)NC(=O)[C@H](CC(C)C)NC(=O)[C@H](Cc1ccccc1)NC(=O)[C@H](CCC(=O)O)NC(=O)[C@H](C)NC(=O)[C@H](CC(C)C)NC(=O)[C@H](CCCNC(=N)N)NC(=O)[C@H](CCC(N)=O)NC(=O)[C@@H](NC(=O)[C@H](C)NC(=O)[C@@H]1CSSC[C@H](NC(=O)[C@H](Cc2c[nH]cn2)NC(=O)[C@H](Cc2c[nH]cn2)NC(=O)[C@H](Cc2c[nH]cn2)NC(=O)CC[C@H](NC(=O)CCCCCCCCCCCCCCCCCCC(=O)O)C(=O)O)C(=O)N[C@@H](Cc2c[nH]cn2)C(=O)N[C@@H]([C@@H](C)O)C(=O)N[C@@H](C)C(=O)N[C@@H]([C@@H](C)O)C(=O)N1)[C@@H](C)O)C(=O)N[C@@H](CC(C)C)C(=O)N1CCC[C@H]1C(=O)N1CCC[C@H]1C(=O)N[C@H](C(=O)N[C@@H](CC(N)=O)C(=O)N[C@H](C(=O)NCC(=O)N[C@@H](CO)C(=O)N[C@@H](Cc1c[nH]cn1)C(=O)N[C@H](C(=O)N[C@@H](Cc1ccc(O)cc1)C(N)=O)[C@@H](C)O)C(C)C)[C@@H](C)O [Example 32, N-alpha-[(S)-4-Carboxy-4-(19-carboxynonadecanoylamino)butyryl]-His-His-[His1,His3,Glu14,His17,His35]-pramlintide] ({C20 diacid-γGlu}-HHHCHTATCATQRLAEFLHHSSNNFGPILPPTNVGSHTY-NH2; disulfide 4-9)	>45	–
CC[C@H](C)[C@H](NC(=O)[C@@H]1CCCN1C(=O)CNC(=O)[C@H](Cc1ccccc1)NC(=O)[C@H](CC(N)=O)NC(=O)[C@H](CCC(N)=O)NC(=O)[C@H](CO)NC(=O)[C@H](CO)NC(=O)[C@H](Cc1c[nH]cn1)NC(=O)[C@H](CCCNC(=N)N)NC(=O)[C@H](CC(C)C)NC(=O)[C@H](Cc1ccccc1)NC(=O)[C@H](CCC(=O)O)NC(=O)[C@H](C)NC(=O)[C@H](CC(C)C)NC(=O)[C@H](CCCNC(=N)N)NC(=O)[C@H](CCC(N)=O)NC(=O)[C@@H](NC(=O)[C@H](C)NC(=O)[C@@H]1CSSC[C@H](NC(=O)[C@H](CCC(=O)O)NC(=O)[C@H](CCCNC(=N)N)NC(=O)[C@H](CCC(=O)O)NC(=O)CC[C@H](NC(=O)CCCCCCCCCCCCCCCCCCC(=O)O)C(=O)O)C(=O)N[C@@H](CC(N)=O)C(=O)N[C@@H]([C@@H](C)O)C(=O)N[C@@H](C)C(=O)N[C@@H]([C@@H](C)O)C(=O)N1)[C@@H](C)O)C(=O)N[C@@H](CC(C)C)C(=O)N1CCC[C@H]1C(=O)N1CCC[C@H]1C(=O)N[C@H](C(=O)N[C@@H](CCC(N)=O)C(=O)N[C@H](C(=O)NCC(=O)N[C@@H](CO)C(=O)N[C@@H](CCC(N)=O)C(=O)N[C@H](C(=O)N1CCC[C@H]1C(N)=O)[C@@H](C)O)C(C)C)[C@@H](C)O [Example 163, N-alpha-[(S)-4-Carboxy-4-(19-carboxynonadecanoylamino)butyryl]-Glu-Arg-[Glu1,Glu14,Arg17,Gln21,Gln31,Gln35,Pro37]-pramlintide] ({C20 diacid-γGlu}-ERECNTATCATQRLAEFLRHSSQNFGPILPPTQVGSQTP-NH2; disulfide 4-9 (inferred))	>45	>45
CC[C@H](C)[C@H](NC(=O)[C@@H]1CCCN1C(=O)CNC(=O)[C@H](Cc1ccccc1)NC(=O)[C@H](CC(N)=O)NC(=O)[C@H](CCC(N)=O)NC(=O)[C@H](CO)NC(=O)[C@H](CO)NC(=O)[C@H](Cc1c[nH]cn1)NC(=O)[C@H](Cc1c[nH]cn1)NC(=O)[C@H](CC(C)C)NC(=O)[C@H](Cc1ccccc1)NC(=O)[C@H](CCC(=O)O)NC(=O)[C@H](C)NC(=O)[C@H](CC(C)C)NC(=O)[C@H](CCCNC(=N)N)NC(=O)[C@H](CCC(N)=O)NC(=O)[C@@H](NC(=O)[C@H](C)NC(=O)[C@@H]1CSSC[C@H](NC(=O)[C@H](CCCCN)NC(=O)CC[C@H](NC(=O)CCCCCCCCCCCCCCCCCCC(=O)O)C(=O)O)C(=O)N[C@@H](CC(N)=O)C(=O)N[C@@H]([C@@H](C)O)C(=O)N[C@@H](C)C(=O)N[C@@H]([C@@H](C)O)C(=O)N1)[C@@H](C)O)C(=O)N[C@@H](CC(C)C)C(=O)N1CCC[C@H]1C(=O)N1CCC[C@H]1C(=O)N[C@H](C(=O)N[C@@H](CC(N)=O)C(=O)N[C@H](C(=O)NCC(=O)N[C@@H](CO)C(=O)N[C@@H](CC(N)=O)C(=O)N[C@H](C(=O)N1CCC[C@H]1C(N)=O)[C@@H](C)O)C(C)C)[C@@H](C)O [Example 130, N-alpha-[(S)-4-Carboxy-4-(19-carboxynonadecanoylamino)butyryl]-[Glu14,His17,Gln21,Pro37]-pramlintide] ({C20 diacid-γGlu}-KCNTATCATQRLAEFLHHSSQNFGPILPPTNVGSNTP-NH2; disulfide 2-7)	>45	>45
CC[C@H](C)[C@H](NC(=O)[C@@H]1CCCN1C(=O)CNC(=O)[C@H](Cc1ccccc1)NC(=O)[C@H](CC(N)=O)NC(=O)[C@H](CC(N)=O)NC(=O)[C@H](CO)NC(=O)[C@H](CO)NC(=O)[C@H](Cc1c[nH]cn1)NC(=O)[C@H](Cc1c[nH]cn1)NC(=O)[C@H](CC(C)C)NC(=O)[C@H](Cc1ccccc1)NC(=O)[C@H](CCC(=O)O)NC(=O)[C@H](C)NC(=O)[C@H](CC(C)C)NC(=O)[C@H](CCCNC(=N)N)NC(=O)[C@H](CCC(N)=O)NC(=O)[C@@H](NC(=O)[C@H](C)NC(=O)[C@@H]1CSSC[C@H](NC(=O)CNC(=O)CC[C@H](NC(=O)CCCCCCCCCCCCCCCCCCC(=O)O)C(=O)O)C(=O)N[C@@H](CC(N)=O)C(=O)N[C@@H]([C@@H](C)O)C(=O)N[C@@H](C)C(=O)N[C@@H]([C@@H](C)O)C(=O)N1)[C@@H](C)O)C(=O)N[C@@H](CC(C)C)C(=O)N1CCC[C@H]1C(=O)N1CCC[C@H]1C(=O)N[C@H](C(=O)N[C@@H](CC(N)=O)C(=O)N[C@H](C(=O)NCC(=O)N[C@@H](CO)C(=O)N[C@@H](CC(N)=O)C(=O)N[C@H](C(=O)N1CCC[C@H]1C(N)=O)[C@@H](C)O)C(C)C)[C@@H](C)O [Example 91, N-alpha-[(S)-4-Carboxy-4-(19-carboxynonadecanoylamino)butyryl]-[Gly1,Glu14,His17,Pro37]-pramlintide] ({C20 diacid-γGlu}-GCNTATCATQRLAEFLHHSSNNFGPILPPTNVGSNTP-NH2; disulfide 2-7 (inferred))	29	–
CC[C@H](C)[C@H](NC(=O)[C@@H]1CCCN1C(=O)CNC(=O)[C@H](Cc1ccccc1)NC(=O)[C@H](CC(N)=O)NC(=O)[C@H](CC(N)=O)NC(=O)[C@H](CO)NC(=O)[C@H](CO)NC(=O)[C@H](Cc1c[nH]cn1)NC(=O)[C@H](Cc1c[nH]cn1)NC(=O)[C@H](CC(C)C)NC(=O)[C@H](Cc1ccccc1)NC(=O)[C@H](CCC(=O)O)NC(=O)[C@H](C)NC(=O)[C@H](CC(C)C)NC(=O)[C@H](CCCNC(=N)N)NC(=O)[C@H](CCC(N)=O)NC(=O)[C@@H](NC(=O)[C@H](C)NC(=O)[C@@H]1CSSC[C@H](NC(=O)CC[C@H](NC(=O)CCCCCCCCCCCCCCCCCCC(=O)O)C(=O)O)C(=O)N[C@@H](CC(N)=O)C(=O)N[C@@H]([C@@H](C)O)C(=O)N[C@@H](C)C(=O)N[C@@H]([C@@H](C)O)C(=O)N1)[C@@H](C)O)C(=O)N[C@@H](CC(C)C)C(=O)N1CCC[C@H]1C(=O)N1CCC[C@H]1C(=O)N[C@H](C(=O)N[C@@H](CC(N)=O)C(=O)N[C@H](C(=O)NCC(=O)N[C@@H](CO)C(=O)N[C@@H](Cc1c[nH]cn1)C(=O)N[C@H](C(=O)N[C@@H](Cc1ccc(O)cc1)C(N)=O)[C@@H](C)O)C(C)C)[C@@H](C)O [Example 75, N-alpha-[(S)-4-Carboxy-4-(19-carboxynonadecanoylamino)butyryl]-[des1,Glu14,His17,His35]-pramlintide] ({C20 diacid-γGlu}-CNTATCATQRLAEFLHHSSNNFGPILPPTNVGSHTY-NH2; disulfide 1-6)	28	–
